From US8063225B2, “Tricyclic compound derivatives useful in the treatment of neoplastic diseases, inflammatory disorders and immunomodulatory disorders” (Chembridge Corporation, priority 2006, dated 2011)

Experiments:
[1] = target: T1, IGF1R tyrosine kinase (Homo sapiens, UniProt P08069); assay: IGF1R tyrosine kinase assay (Kinase-Glo ATP depletion or PT66/PT100 AlphaScreen); details: biochemical tyrosine kinase assay
T1 construct: 6×His- or GST-tagged kinase domain fragments of the corresponding RTKs expressed in baculovirus system; host or cells: baculovirus system
How it was run: (§1)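 Phosphorylation of poly(Glu-Tyr) by baculovirus-made kinase domains, 10 μM ATP, measured either as ATP depletion (Kinase-Glo, 37° C, 1 h) or phosphotyrosine AlphaScreen (room temperature, 30 min plus 60 min with beads).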

[2] = target: T2, Jak2 (Homo sapiens, UniProt O60674); assay: Tyrosine kinase assay (Kinase-Glo or AlphaScreen), Jak2; details: biochemical tyrosine kinase assay
T2 construct: 6×His- or GST-tagged kinase domain fragments of the corresponding RTKs expressed in baculovirus system; host or cells: baculovirus system
How it was run: as §1

[3] = system: H929 (multiple myeloma); assay: Cell proliferation inhibition, Cell Titer-Glo, H929; format: cell-based; details: Homo sapiens, NCI-H929; cell proliferation assay, H929 cells
How it was run: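 Cells seeded at 2500-5000 per well with serially diluted compound for typically 3 days. Viable cells measured by ATP luminescence (Cell Titer-Glo); IC50 from proliferation-inhibition curves.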

[4] = target: T3, InsR (Homo sapiens, UniProt P06213); assay: Tyrosine kinase assay (Kinase-Glo or AlphaScreen), InsR; details: biochemical tyrosine kinase assay
T3 construct: 6×His- or GST-tagged kinase domain fragments of the corresponding RTKs expressed in baculovirus system; host or cells: baculovirus system
How it was run: as §1

[5] = system: CHO (chinese hamster ovary); assay: Cell proliferation inhibition, Cell Titer-Glo, CHO; format: cell-based; details: Cricetulus griseus; cell proliferation assay, CHO cells
Method: (§2) IGF1R and other tyrosine kinase inhibitors can inhibit the proliferation of certain cancer cell lines indicating their possible therapeutic utility for treating the corresponding cancer types. Cancer cell lines of interest and control normal lines, including CHO, HEK293, BA/F3, MM1, H929, COLO205, PC3, DU145, MCF7, Panc1, ACHN, Hep G2, H460, K562, TT, U87-G, CAOV-3, SK-MEL5, Karpas 299, are plated in white, clear-bottomed 384-well cell culture plates at 2500-5000 cells per well and supplied with dilutions of tested compounds After a desired period of time (typically 3 days), the number of viable cells is quantitated by using Cell Titer-Glo Luminescent Cell Viability Assay (Promega), a cell proliferation assay system based on detection of total amount of ATP present as a measure of cell metabolic activity. The plated cells are mixed with the Cell Titer-Glo developing reagent and counted in a luminescence multiwell plate reader according to the standard manufacturer's protocol to generate IC50 curves for cell proliferation inhibition.
(§3) IGF1R and other tyrosine kinase inhibitors can inhibit the proliferation of certain cancer cell lines indicating their possible therapeutic utility for treating the corresponding cancer types. Cancer cell lines of interest and control normal lines, including CHO, HEK293, BA/F3, COLO205, PC3, DU145, MCF7, Panc1, ACHN, Hep G2, H460, K562, TT, U87-MG, CAOV-3, SK-MEL5, Karpas 299 and human multiple myeloma cell lines H929, MM1s, MM1r, UTMC2, CPM2, KMS11, My5, KMS12PE, My7, JJN3, KMS18, U266, SKMM2, RPMI-8226 are plated in white, clear-bottomed 384-well cell culture plates at 2500-5000 cells per well and supplied with dilutions of tested compounds After a desired period of time (typically 3 days), the number of viable cells is quantitated by using Cell Titer-Glo Luminescent Cell Viability Assay (Promega), a cell proliferation assay system based on detection of total amount of ATP present as a measure of cell metabolic activity. The plated cells are mixed with the Cell Titer-Glo developing reagent and counted in a luminescence multiwell plate reader according to the standard manufacturer's protocol to generate IC50 curves for cell proliferation inhibition. Results are typically reported as percent of growth (% viability =(OD72h(compound)−ODday0))/(OD72h(no compound)−ODday0). Alternatively, viable cells are quantitated by using the conventional colorimetric MTT assay. The MTT assay is based on the cleavage of the yellow tetrazolium salt MTT to purple formazan crystal by metabolic active cells. The formazan is then solubilized, and the concentration determined by optical density at 570 nm. The cells plated and incubated with a compound as described above are supplemented with the solution of MTT and incubated for 2-3 hours. The growth medium is removed and dimethyl sulfoxide is added into each well to dissolve the formazan. The absorbance is measured on an ELISA plate reader with a test wavelength of 570 nm and a background subtraction wavelength of 630 nm to obtain sample signal (OD570-OD630). […] The results are reported in terms of IC50 value for a particular compound and a cell line in the standard 3-day proliferation assay using Cell Titer-Glo. […] The results are reported in terms of IC50 value for a particular compound and a cell line in the standard 3-day proliferation assay using MTT assay.

[6] = system: HEK293 (human normal embryonic kidney); assay: Cell proliferation inhibition, Cell Titer-Glo, HEK293; format: cell-based; details: cell proliferation assay, HEK293 cells, read-out: HEK 293 IC50
Method: as §2, §3

[7] = target: T4, Alk (Homo sapiens, UniProt Q9UM73); assay: Tyrosine kinase assay (Kinase-Glo or AlphaScreen), Alk; details: biochemical tyrosine kinase assay
T4 construct: 6×His- or GST-tagged kinase domain fragments of the corresponding RTKs expressed in baculovirus system; host or cells: baculovirus system
How it was run: as §1

[8] = system: K562; assay: Cell proliferation inhibition, Cell Titer-Glo, K562; format: cell-based; details: Homo sapiens; cell proliferation assay, K562 cells
How it was run: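 Proliferation inhibition in human K562 cells was assessed in a standard 3-day assay. Cells (2500-5000 per well) in 384-well white, clear-bottomed plates received serial compound dilutions, then Cell Titer-Glo reagent was added per the manufacturer's protocol. Luminescence reflecting ATP content of metabolically active cells was counted in a multiwell reader, and IC50 curves were generated.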

[9] = system: Ba/F3; assay: Cell proliferation inhibition, Cell Titer-Glo, Ba/F3; format: cell-based; details: Mus musculus, BaF3; cell proliferation assay, Ba/F3 cells
How it was run: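 This standard 3-day proliferation assay used Ba/F3 cells plated in 384-well white plates with clear bottoms at 2500-5000 cells per well and treated with compound dilutions. Viable cell number was determined by mixing in Cell Titer-Glo developing reagent according to the manufacturer's protocol and counting luminescence. Percent viability relative to day 0 and untreated wells produced IC50 curves.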

[10] = system: Karpas-299; assay: Cell proliferation inhibition, Cell Titer-Glo, Karpas-299; format: cell-based; details: Homo sapiens; cell proliferation assay, Karpas-299 cells
How it was run: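 In this standard 3-day proliferation assay, Karpas 299 cells plated at 2500-5000 cells per well in 384-well white, clear-bottomed plates were treated with compound dilutions. Cell Titer-Glo developing reagent was added following the manufacturer's protocol, luminescence reflecting ATP content was read on a multiwell plate reader, and IC50 curves were generated.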

T3 sequence (P06213 1023-1298 limits assumed, species assumed): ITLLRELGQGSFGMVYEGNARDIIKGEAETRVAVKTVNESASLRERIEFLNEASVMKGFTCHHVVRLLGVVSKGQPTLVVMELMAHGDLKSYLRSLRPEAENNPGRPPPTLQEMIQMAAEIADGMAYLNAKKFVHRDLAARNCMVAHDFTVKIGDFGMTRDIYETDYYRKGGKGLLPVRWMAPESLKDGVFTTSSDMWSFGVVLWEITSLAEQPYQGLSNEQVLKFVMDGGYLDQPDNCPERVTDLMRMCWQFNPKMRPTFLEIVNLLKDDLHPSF
T4 sequence (Q9UM73 1116-1392 limits assumed, species assumed): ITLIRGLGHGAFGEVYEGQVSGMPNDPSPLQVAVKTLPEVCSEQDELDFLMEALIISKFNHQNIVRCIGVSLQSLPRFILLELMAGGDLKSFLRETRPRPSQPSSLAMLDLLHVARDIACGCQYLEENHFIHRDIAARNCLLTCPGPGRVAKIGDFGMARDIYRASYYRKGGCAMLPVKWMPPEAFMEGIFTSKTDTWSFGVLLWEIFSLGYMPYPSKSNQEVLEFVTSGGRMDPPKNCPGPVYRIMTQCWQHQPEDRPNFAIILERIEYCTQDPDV
T1 sequence (P08069 999-1274 limits assumed): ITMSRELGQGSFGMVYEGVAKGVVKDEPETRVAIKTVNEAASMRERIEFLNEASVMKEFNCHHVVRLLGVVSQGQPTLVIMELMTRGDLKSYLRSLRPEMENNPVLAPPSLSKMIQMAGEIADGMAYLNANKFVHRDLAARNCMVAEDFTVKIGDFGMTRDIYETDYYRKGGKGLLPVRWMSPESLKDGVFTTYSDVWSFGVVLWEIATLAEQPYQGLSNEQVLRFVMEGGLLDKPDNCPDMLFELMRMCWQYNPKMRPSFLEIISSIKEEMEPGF
T2 sequence (O60674 849-1124 limits assumed, species assumed): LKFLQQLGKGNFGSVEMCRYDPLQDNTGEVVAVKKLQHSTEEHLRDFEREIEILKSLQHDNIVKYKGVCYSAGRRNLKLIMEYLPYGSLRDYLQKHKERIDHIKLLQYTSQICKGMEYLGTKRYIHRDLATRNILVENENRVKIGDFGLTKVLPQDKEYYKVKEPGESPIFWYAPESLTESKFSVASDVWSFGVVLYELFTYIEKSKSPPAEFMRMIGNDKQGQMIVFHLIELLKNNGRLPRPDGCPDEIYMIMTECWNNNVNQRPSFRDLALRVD

| SMILES | IC50 [1] [µM] | IC50 [2] [µM] | IC50 [3] [µM] | IC50 [4] [µM] | IC50 [7] [µM] | IC50 [8] [µM] | IC50 [9] [µM] | IC50 [10] [µM] | IC50 [5] [µM] | IC50 [6] [µM] |
| --- | --- | --- | --- | --- | --- | --- | --- | --- | --- | --- |
| CN1CCC(N2Cc3cc4nc(-c5c(N[C@@H](CO)Cc6ccccc6)cc[nH]c5=O)[nH]c4cc3C2=O)CC1 [compound 160] | 0.5 to 5 | 0.5 to 5 | 5 to 15 | < 0.5 | 0.5 to 5 | – | – | – | > 15 | – |
| CN1CCC(N2Cc3cc4[nH]c(-c5c(NC[C@@H](O)COc6ccc7c(c6Cl)OCO7)cc[nH]c5=O)nc4cc3C2=O)CC1 [compound 163] | < 0.5 | < 0.5 | 5 to 15 | < 0.5 | 0.5 to 5 | – | – | – | > 15 | 5 to 15 |
| CN1CCC(N2Cc3cc4[nH]c(-c5c(NC[C@@H](O)COc6c(F)cc(F)cc6Br)cc[nH]c5=O)nc4cc3C2=O)CC1 [compound 164] | < 0.5 | < 0.5 | 5 to 15 | < 0.5 | 0.5 to 5 | – | – | – | 5 to 15 | 5 to 15 |
| CN1CCC(N2Cc3cc4[nH]c(-c5c(NC[C@@H](O)COc6ccc(F)cc6Br)cc[nH]c5=O)nc4cc3C2=O)CC1 [compound 165] | < 0.5 | < 0.5 | 0.5 to 5 | < 0.5 | 0.5 to 5 | – | – | – | 5 to 15 | > 15 |
| Cc1ccc(OC[C@H](O)CNc2cc[nH]c(=O)c2-c2nc3cc4c(cc3[nH]2)CN(C2CCN(C)CC2)C4=O)c(Br)c1 [compound 166] | < 0.5 | < 0.5 | 0.5 to 5 | < 0.5 | 0.5 to 5 | – | – | – | 5 to 15 | > 15 |
| CN1CCC(N2Cc3cc4[nH]c(-c5c(NC[C@@H](O)COc6ccccc6Br)cc[nH]c5=O)nc4cc3C2=O)CC1 [compound 167] | < 0.5 | < 0.5 | 0.5 to 5 | < 0.5 | 0.5 to 5 | – | – | – | > 15 | > 15 |
| CN1CCC(N2Cc3cc4[nH]c(-c5c(NC[C@@H](O)COc6cc(F)c(F)cc6Br)cc[nH]c5=O)nc4cc3C2=O)CC1 [compound 168] | < 0.5 | < 0.5 | 5 to 15 | < 0.5 | 0.5 to 5 | – | – | – | > 15 | > 15 |
| Cc1c(OC[C@H](O)CNc2cc[nH]c(=O)c2-c2nc3cc4c(cc3[nH]2)CN(C2CCN(C)CC2)C4=O)ccc2c1OCO2 [compound 169] | < 0.5 | < 0.5 | > 15 | < 0.5 | 0.5 to 5 | – | – | – | > 15 | > 15 |

The next lines start with results.

| IC50 [1] [µM] | IC50 [2] [µM] | IC50 [3] [µM] | IC50 [4] [µM] | IC50 [7] [µM] | IC50 [8] [µM] | IC50 [9] [µM] | IC50 [10] [µM] | SMILES | IC50 [5] [µM] | IC50 [6] [µM] |
| --- | --- | --- | --- | --- | --- | --- | --- | --- | --- | --- |
| < 0.5 | < 0.5 | 5 to 15 | < 0.5 | 0.5 to 5 | – | – | – | COc1ccc(OC[C@H](O)CNc2cc[nH]c(=O)c2-c2nc3cc4c(cc3[nH]2)CN(C2CCN(C)CC2)C4=O)c(Cl)c1 [compound 146] | > 15 | > 15 |
| < 0.5 | < 0.5 | 0.5 to 5 | < 0.5 | 5 to 15 | – | – | – | Cc1ccc(F)c(OC[C@H](O)CNc2cc[nH]c(=O)c2-c2nc3cc4c(cc3[nH]2)C(=O)N(C2CCN(C)CC2)C4)c1Cl [compound 147] | > 15 | > 15 |
| < 0.5 | < 0.5 | 5 to 15 | < 0.5 | 0.5 to 5 | – | – | – | CN1CCC(N2Cc3cc4nc(-c5c(NC[C@@H](O)COc6ccc(F)cc6F)cc[nH]c5=O)[nH]c4cc3C2=O)CC1 [compound 148] | 5 to 15 | > 15 |
| < 0.5 | < 0.5 | 0.5 to 5 | < 0.5 | < 0.5 | – | – | – | CN1CCC(N2Cc3cc4nc(-c5c(NC[C@@H](O)COc6ccccc6C(F)(F)F)cc[nH]c5=O)[nH]c4cc3C2=O)CC1 [compound 149] | > 15 | 5 to 15 |
| < 0.5 | < 0.5 | 5 to 15 | < 0.5 | 0.5 to 5 | – | – | – | CCc1cc2c(cc1OC[C@H](O)CNc1cc[nH]c(=O)c1-c1nc3cc4c(cc3[nH]1)C(=O)N(C1CCN(C)CC1)C4)OCO2 [compound 156] | > 15 | – |
| < 0.5 | < 0.5 | > 15 | < 0.5 | 0.5 to 5 | – | – | – | CN1CCC(N2Cc3cc4nc(-c5c(NC[C@@H](O)COc6cc7c(cc6Cl)OCO7)cc[nH]c5=O)[nH]c4cc3C2=O)CC1 [compound 157] | > 15 | – |
| < 0.5 | < 0.5 | 5 to 15 | < 0.5 | 5 to 15 | – | – | – | Cc1ccc(Cl)c(OC[C@H](O)CNc2cc[nH]c(=O)c2-c2nc3cc4c(cc3[nH]2)C(=O)N(C2CCN(C)CC2)C4)c1F [compound 158] | > 15 | – |
| < 0.5 | < 0.5 | 5 to 15 | < 0.5 | 5 to 15 | – | – | – | COc1cccc(OC[C@H](O)CNc2cc[nH]c(=O)c2-c2nc3cc4c(cc3[nH]2)C(=O)N(C2CCN(C)CC2)C4)c1C [compound 159] | > 15 | – |
| < 0.5 | 0.5 to 5 | 5 to 15 | < 0.5 | 0.5 to 5 | > 15 | > 15 | 5 to 15 | CC(=N)N1CCC(N2C(=O)c3cc4nc(-c5c(NC[C@@H](O)COc6ccc(C)cc6C)cc[nH]c5=O)[nH]c4cc3C2=O)CC1 [compound 161] | > 15 | > 15 |
| < 0.5 | < 0.5 | 5 to 15 | < 0.5 | 0.5 to 5 | – | – | – | CCc1c(OC[C@H](O)CNc2cc[nH]c(=O)c2-c2nc3cc4c(cc3[nH]2)CN(C2CCN(C)CC2)C4=O)ccc2c1OCO2 [compound 162] | 5 to 15 | 5 to 15 |
